{
  "source": "patent US20110021477A1",
  "about": "“COMBINATIONS COMPRISING […] AGENTS AND CORTICOSTERIODS” (priority 2004, published 2011)",
  "test_system": "ovoalbumin-sensitized guinea-pig isolated tracheal rings",
  "test": "Inhibition of antigen (ovoalbumin)-induced contraction in ovoalbumin-sensitized guinea-pig isolated tracheal rings (organ bath)",
  "experimental": "Male Dunkin-Hartley guinea-pigs (weighing 380-420 g) from Harlan Ibérica (St. Feliu de Codines, Spain) are used. They are housed, with free access to food and water, in rooms kept at 22±2° C. under a 12 hours light-dark cycle until the start of the experiment.\nThe animals are sensitised by means of two sessions of aerosolization with a solution of 5 mg/ml of ovoalbumin on days zero and 7 of the study. The aerosolization procedure consists of two 30-s nebulisations (Efbe air brush apparatus) with an interval of 5 minutes with animals maintained in a plexiglass box for 10 minutes since the beginning of the procedure.\nBetween days 14 to 20 from the beginning of the experiment the animals are euthanised and the tracheal tissue is removed. A single tracheal ring is excised and suspended in an organ bath containing Krebs solution. Once attached to a force isometric transducer, it is submitted to a basal resting tension of 1 g, equilibrated with a mixture a 5% CO2 in O2 and maintained at 37° C.\nThe preparations are allowed to equilibrate for a period of not less than 60 minutes and then the vehicle or the compound(s) to be tested are added to the bath. […] At this moment ovoalbumin is added (at a final concentration in the bath of 10 μg/ml) to elicit the contractile response which is measured immediately.\nThe contractile responses measured with a force isometric transducer are expressed in mg.",
  "data": [
    {"smiles": "C[C@H]1C[C@H]2[C@@H]3CCC4=CC(=O)C=C[C@]4(C)[C@@]3(Cl)[C@@H](O)C[C@]2(C)[C@@]1(O)C(=O)CO", "note": "[BECLOMETHASONE, beclomethasone]", "values": [
      {"measurement": "% INHIBITION OF THE CONTRACTILE RESPONSE", "setting": "each compound 10 μM in bath, ovoalbumin 10 μg/ml, relative to vehicle", "result": 12, "unit": "%"},
      {"measurement": "inhibition of the contractile response to antigen, comparison in words", "setting": "ovoalbumin-sensitized guinea-pig tracheal rings, summary of Table 1 and FIG. 1", "result": "smaller effect"}
    ]}
  ]
}
